Measured values from patent US9073858B2, “Methods of targeted drug development” (priority 2010, dated 2015).
Several values for one entry are separate records, joined by “and”; a condition that tells them apart may be missing. Identical values can stand only once. Like-named read-outs stand apart in the source and are kept apart here.

Tests used:
[1] = Stability on incubation with human liver microsomes (HLM); type: in vitro ADME; details: percentage left after incubation with human liver microsomes for 30 minutes
Description: (§1) Stability of hydroxyquinoline analogs were determined (see e.g., TABLE 18). MLM represents the percentage left after incubation with mouse liver microsomes for 30 minutes. HLM represents the percentage left after incubation with human liver microsomes for 30 minutes.
(§2) Stability of analogs having a benzaldehyde derived ring were determined (see e.g., TABLE 18). MLM represents the percentage left after incubation with mouse liver microsomes for 30 minutes. HLM represents the percentage left after incubation with human liver microsomes for 30 minutes.

[2] = Stability on incubation with mouse liver microsomes (MLM); type: in vitro ADME; details: percentage left after incubation with mouse liver microsomes for 30 minutes
Description: as §1, §2

A549 cells = assay: A549 Cell Proliferation Assay (MTT); type: cell-based; details: Homo sapiens
Description: Cell proliferation is determined using the MTT assay. The MTT cell proliferation assay is a colorimetric assay system which measures the reduction of a tetrazolium component (MTT) into an insoluble formazan product by the mitochondria of viable cells. After incubation of the cells with the MTT reagent, DMSO is added to solubilize the colored crystals and the samples read at a wavelength of 560 nm. The amount of color produced is directly proportional to the number of viable cells. […] L11939) was prepared at 5 mg/ml in PBS. […] Plates were read on the PolarStar plate reader at 560 nm. […] IC50 values were calculated in GraphPad Prism using non-linear regression curve fitting. All statistical analyses was done either in GraphPad Prism or Microsoft Excel. […] Briefly, compounds are added to cells plated in 96-well plates. The cells are allowed to grow for 72 hours before MTT treatment. The effect of the compounds on cell proliferation is analyzed using GraphPad Prism. A549 cells are a non-small cell lung cancer cell line that have wild type EGFR and p53 but have point mutations in KRAS gene which transform it into an oncogene. […] SH30071.03, lot no. ATB31500), 1% Pen Strep (Gibco, cat no. […] On day 2, working solutions of compounds at 200× were prepared. […] Plates were incubated for 72 hours before analyzing them with MTT (as described above).

H1975 cells = assay: H1975 Cell Proliferation Assay (MTT); type: cell-based; details: Homo sapiens, NCI-H1975, 72 h, read-out: IC50 Value (μM) H1975 Cells
Description: (§3) Cell proliferation is determined using the MTT assay. The MTT cell proliferation assay is a colorimetric assay system which measures the reduction of a tetrazolium component (MTT) into an insoluble formazan product by the mitochondria of viable cells. After incubation of the cells with the MTT reagent, DMSO is added to solubilize the colored crystals and the samples read at a wavelength of 560 nm. The amount of color produced is directly proportional to the number of viable cells.
(§4) 3-(4,5-Dimethylthiazol-2-yl)-2,5-diphenyltetrazolium Bromide (MTT) dye (Aesar, cat no. L11939) was prepared at 5 mg/ml in PBS. To each well, 20 μl of MTT solution was added to existing media and mixed thoroughly with 5 mins of gentle shaking at room temperature. Plates were incubated at 37° C., 5% CO2 for approximately 2 hrs. After 2-3 hrs incubation, media was aspirated out and plates were patted dry. […] Plates were incubated at 37° C., 5% CO2 for 10 min and mix thoroughly with 5 mins of gentle shaking at room temperature. Plates were read on the PolarStar plate reader at 560 nm. Percent (%) inhibition was calculated as 100%−(OD560 nm experimental-blank)×100%/OD560 nm control-blank. Blank=wells+serum free media+0.5% DMSO. Experimental=wells+cells+treatment+0.5% DMSO. Control=wells+cells+0.5% DMSO. IC50 values were calculated in GraphPad Prism using non-linear regression curve fitting. All statistical analyses was done either in GraphPad Prism or Microsoft Excel.
Briefly, compounds are added to cells plated in 96-well plates. The cells are allowed to grow for 72 hours before MTT treatment. The effect of the compounds on cell proliferation is analyzed using GraphPad Prism.

HT-29 cells = assay: HT-29 Cell Proliferation Assay (MTT); type: cell-based
Description: as §3, §4
Briefly, compounds are added to cells plated in 96-well plates. […] The effect of the compounds on cell proliferation is analyzed using GraphPad Prism.
HT-29 cells are a colon cancer cell line that is utilized to assess the ability of compounds to inhibit the proliferation of cells in tumors of the colon.
For the HT-29 cell proliferation assay, on day 1, HT-29 cells are seeded at 3,000 cells/well in 100 μl media containing 10% FBS, 1× Pen-Strep, and 1× L-Glutamine in 96 well, tissue culture-treated plates. […] Working solutions of compounds were prepared (at […] in 100% DMSO). To 200 μl media, 20 μl of a 5× compound (diluted in plain media) was added for a final DMSO concentration of 0.5%. […] On day 5, plates were analyzed for cell growth using the MTT assay.

[3] = A549, 72 h, read-out: IC50 Value (μM) A549 Cells
[4] = Homo sapiens, HT-29, 72 h, read-out: IC50 Value (μM) HT-29 Cells

| SMILES | HLM % Remaining@ 30 Min [1] [%] | MLM % Remaining@ 30 Min [2] [%] | other results |
| --- | --- | --- | --- |
| Cc1cccc(NC(c2ccc(F)cc2Cl)c2ccc3cccnc3c2O)n1 (centres unmarked) [AD4-13024] | 47 | 20 |  |
| Oc1c(C(Nc2ccc(C(F)(F)F)cn2)c2ccc(C(F)(F)F)cc2)ccc2cccnc12 (centres unmarked) [AD4-13028] |  |  | IC50 (A549 cells; [3]): 0.14 µM; IC50 (H1975 cells): 0.26 µM |
| Oc1c(C(Nc2ccc(C(F)(F)F)cn2)c2ccc(F)cc2F)ccc2cccnc12 (centres unmarked) [AD4-13029] | 76 | 77 |  |
| Cc1cc(Cl)cnc1NC(c1ccc(C(F)(F)F)c(F)c1)c1ccc2cccnc2c1O (centres unmarked) [AD4-13043] | 98 | 77 |  |
| Oc1c(C(Nc2cc(Cl)ccn2)c2ccc(F)cc2F)ccc2cccnc12 (centres unmarked) [AD4-13045] | 77 | 26 |  |
| Oc1c(C(Nc2ccc(C(F)(F)F)nc2)c2ccc(C(F)(F)F)c(F)c2)ccc2cccnc12 (centres unmarked) [AD4-13051] | 72 | 40 |  |
| Oc1c(C(Nc2ccc(Cl)cn2)c2ccc(C(F)(F)F)cc2)ccc2cccnc12 (centres unmarked) [AD4-13053] | 97 | 46 |  |
| Oc1c(C(Nc2ccc(Cl)cn2)c2ccc(Cl)c(Cl)c2)ccc2cccnc12 (centres unmarked) [AD4-13054] | 80 | 46 |  |
| Oc1c(C(Nc2ccc(Cl)cn2)c2ccc(C(F)(F)F)c(F)c2)ccc2cccnc12 (centres unmarked) [AD4-13055] | 100 | 57 |  |
| Oc1c(C(Nc2ccc(C(F)(F)F)cn2)c2cc(C(F)(F)F)ccc2Cl)ccc2cccnc12 (centres unmarked) [AD4-13056] | 88 | 85 |  |
| Cc1cc(Cl)cnc1NC(c1cc(C(F)(F)F)ccc1Cl)c1ccc2cccnc2c1O (centres unmarked) [AD4-13058] | 75 | 60 |  |
| Cc1cc(Cl)cnc1NC(c1ccc2cccnc2c1O)c1c(F)c(F)cc(F)c1F (centres unmarked) [AD4-13059] | 92 | 64 |  |
| Oc1c(C(Nc2ccc(F)cn2)c2ccc(C(F)(F)F)c(F)c2)ccc2cccnc12 (centres unmarked) [AD4-13061] | 93 | 58 |  |
| Oc1c(C(Nc2ccc(C(F)(F)F)nc2)c2ccc(C(F)(F)F)cc2)ccc2cccnc12 (centres unmarked) [AD4-13063] | 80 | 42 |  |
| Oc1c(C(Nc2ccc(C(F)(F)F)nc2)c2ccc(C(F)(F)F)cc2F)ccc2cccnc12 (centres unmarked) [AD4-13065] | 83 | 47 |  |
| Oc1c(C(Nc2ccc(Cl)cn2)c2ccc(Cl)c(C(F)(F)F)c2)ccc2cccnc12 (centres unmarked) [AD4-13067] | 89 | 46 |  |
| Cc1cc(Cl)cnc1NC(c1ccc(F)cc1F)c1ccc2cccnc2c1O (centres unmarked) [AD4-13068] | 96 | 46 |  |

| SMILES | HLM % Remaining@ 30 Min [1] [%] | MLM % Remaining@ 30 Min [2] [%] | other results |
| --- | --- | --- | --- |
| Cc1cccc(NC(c2cc(Cl)cc(Cl)c2)c2ccc3ccc(C)nc3c2O)n1 (centres unmarked) [AD4-13075] | 64 | 13 |  |
| Cc1cccc(NC(c2cc(Cl)cc(Cl)c2)c2cc(Cl)c3cccnc3c2O)n1 (centres unmarked) [AD4-13076] | 70 | 28 |  |
| Oc1c(C(Nc2ccc(Cl)cn2)c2cc(Cl)cc(Cl)c2)ccc2cccnc12 (centres unmarked) [AD4-13094] | 85 | 52 |  |
| Cc1cc(NC(c2ccc(C(F)(F)F)c(F)c2)c2ccc3cccnc3c2O)ncc1Cl (centres unmarked) [AD4-13106] | 86 | 42 |  |
| Cc1cc(NC(c2cccc(C(F)(F)F)c2)c2ccc3cccnc3c2O)ncc1Cl (centres unmarked) [AD4-13107] | 83 | 28 |  |
| Cc1cc(NC(c2cc(Cl)cc(Cl)c2)c2ccc3cccnc3c2O)ncc1F (centres unmarked) [AD4-13114] | 99 | 40 |  |
| Cc1cc(NC(c2cc(Cl)cc(Cl)c2)c2ccc3cccnc3c2O)ncc1Cl (centres unmarked) [AD4-13122] | 94 | 60 |  |
| Cc1cc(NC(c2ccc(Cl)c(Cl)c2)c2ccc3cccnc3c2O)ncc1Cl (centres unmarked) [AD4-13166] | 100 | 71 |  |
| Cc1ccc2ccc(C(Nc3ncc(Cl)cc3C)c3ccc(Cl)cc3Cl)c(O)c2n1 (centres unmarked) [AD4-13200] | 94 | 67 |  |
| Cc1nc(NC(c2ccc(Cl)c(Cl)c2)c2ccc3cccnc3c2O)c(Cl)cc1Cl (centres unmarked) [AD4-13202] | 100 | 97 |  |
| Cc1nc(NC(c2cc(Cl)cc(Cl)c2Cl)c2ccc3cccnc3c2O)c(Cl)cc1Cl (centres unmarked) [AD4-13213] |  |  | IC50 (A549 cells; [3]): 0.16 µM; IC50 (HT-29 cells; [4]): 5.4 µM |
| COc1cc(Cl)cnc1NC(c1cc(Cl)cc(Cl)c1)c1ccc2cccnc2c1O (centres unmarked) [AD4-13216] |  |  | IC50 (A549 cells; [3]): 0.12 µM; IC50 (HT-29 cells; [4]): 1.6 µM |
| CCc1cc(Cl)cnc1NC(c1ccc(Cl)cc1Cl)c1ccc2cccnc2c1O (centres unmarked) [AD4-13217] |  |  | IC50 (A549 cells; [3]): 0.12 µM; IC50 (HT-29 cells; [4]): 0.96 µM |
| CCc1c(Cl)cnc(NC(c2ccc(Cl)cc2Cl)c2ccc3cccnc3c2O)c1F (centres unmarked) [AD4-13218] |  |  | IC50 (A549 cells; [3]): 0.086 µM; IC50 (A549 cells; A549, read-out: IC50, cell proliferation in A549 or H1975 cells): ≤ 0.1 µM; IC50 (HT-29 cells; [4]): 0.92 µM |
| Cc1nc(NC(c2cc(Cl)cc(Cl)c2)c2ccc3cccnc3c2O)c(Cl)cc1Cl (centres unmarked) [AD4-13223] |  |  | IC50 (A549 cells; [3]): 0.11 µM; IC50 (HT-29 cells; [4]): 2.5 µM |
| CS(=O)(=O)CCNCc1ccc(-c2ccc3ncnc(Nc4ccc(OCc5cccc(F)c5)c(Cl)c4)c3c2)o1 [Tykerb, reference compound] |  |  | IC50 (HT-29 cells; Homo sapiens, HT-29, 48 h, read-out: IC50, Comparison of Incubation Times in HT-29 Cell Proliferation Assay): 2.7 µM; IC50 (HT-29 cells; Homo sapiens, HT-29, 72 h, read-out: IC50, Comparison of Incubation Times in HT-29 Cell Proliferation Assay): 2.3 µM; IC50 (HT-29 cells; Homo sapiens, HT-29, read-out: HT-29 Cell Proliferation Assay Results (IC50)): 5 µM; IC50 (HT-29 cells; Homo sapiens, HT-29, read-out: IC50 from dose-response curves of FIG. 11, HT-29 cells): 2.7 µM; IC50 (HT-29 cells; read-out: HT-29 Cell Proliferation Assay Results (IC50)): 5.1 µM and 8.5 µM and 9.2 µM; IC50 (HT-29 cells; read-out: IC50, Comparison of Incubation Times in HT-29 Cell Proliferation Assay): 4.4 µM and 4.2 µM |
